Measured values published in ChEMBL document CHEMBL4004838, “Design and synthesis of novel phenyl -1, 4-beta-carboline-hybrid molecules as potential anticancer agents” (Eur J Med Chem, 2017).

Experiments:
Format in all cases: functional
[1] = system: LOX IMVI; test: Growth inhibition of human LOXIMVI cells assessed as cell growth at 0.01 uM incubated for 48 hrs by sulforhodamine B assay relative to control; conditions: read-out: Activity
[2] = system: SF-295; test: Growth inhibition of human SF295 cells incubated for 48 hrs by sulforhodamine B assay; conditions: SF-295, 48 h
[3] = system: MDA-MB-468; test: Growth inhibition of human MDA-MB-468 cells incubated for 48 hrs by sulforhodamine B assay; conditions: MDA-MB-468, 48 h
[4] = system: MDA-MB-468; test: Growth inhibition of human MDA-MB-468 cells assessed as cell growth at 0.01 uM incubated for 48 hrs by sulforhodamine B assay relative to control; conditions: MDA-MB-468, 48 h, read-out: Activity
[5] = system: T47D; test: Growth inhibition of human T47D cells assessed as cell growth at 1 uM incubated for 48 hrs by sulforhodamine B assay relative to control; conditions: read-out: Activity
[6] = system: MCF7; test: Growth inhibition of human MCF7 cells assessed as cell growth at 0.01 uM incubated for 48 hrs by sulforhodamine B assay relative to control; conditions: MCF7, 48 h, read-out: Activity
[7] = system: MDA-MB-231; test: Growth inhibition of human MDA-MB-231 cells assessed as cell growth at 100 uM incubated for 48 hrs by sulforhodamine B assay relative to control; conditions: MDA-MB-231, 48 h, read-out: Activity
[8] = system: HOP-92; test: Growth inhibition of human HOP92 cells assessed as cell growth at 100 uM incubated for 48 hrs by sulforhodamine B assay relative to control; conditions: HOP-92, 48 h, read-out: Activity
[9] = system: U-251; test: Growth inhibition of human U251 cells incubated for 48 hrs by sulforhodamine B assay; conditions: U-251, 48 h
[10] = system: PC-3; test: Growth inhibition of human PC3 cells assessed as cell growth at 0.1 uM incubated for 48 hrs by sulforhodamine B assay relative to control; conditions: PC-3, 48 h, read-out: Activity
[11] = system: HT-29; test: Growth inhibition of human HT-29 cells assessed as cell growth at 0.01 uM incubated for 48 hrs by sulforhodamine B assay relative to control; conditions: HT-29, 48 h, read-out: Activity
[12] = system: SF-295; test: Growth inhibition of human SF295 cells assessed as cell growth at 0.1 uM incubated for 48 hrs by sulforhodamine B assay relative to control; conditions: SF-295, 48 h, read-out: Activity
[13] = system: SK-MEL-28; test: Growth inhibition of human SK-MEL-28 cells assessed as cell growth at 0.1 uM incubated for 48 hrs by sulforhodamine B assay relative to control; conditions: SK-MEL-28, 48 h, read-out: Activity
[14] = system: IGROV-1; test: Growth inhibition of human IGROV1 cells assessed as cell growth at 100 uM incubated for 48 hrs by sulforhodamine B assay relative to control; conditions: IGROV-1, 48 h, read-out: Activity
[15] = system: SNB-75; test: Growth inhibition of human SNB75 cells assessed as cell growth at 1 uM incubated for 48 hrs by sulforhodamine B assay relative to control; conditions: SNB-75, 48 h, read-out: Activity
[16] = system: OVCAR-3; test: Growth inhibition of human OVCAR3 cells assessed as cell growth at 0.01 uM incubated for 48 hrs by sulforhodamine B assay relative to control; conditions: OVCAR-3, 48 h, read-out: Activity
[17] = system: SK-MEL-5; test: Growth inhibition of human SK-MEL-5 cells assessed as cell growth at 1 uM incubated for 48 hrs by sulforhodamine B assay relative to control; conditions: SK-MEL-5, 48 h, read-out: Activity
[18] = system: HL-60(TB); test: Growth inhibition of human HL-60(TB) cells assessed as cell growth at 0.1 uM incubated for 48 hrs by sulforhodamine B assay relative to control; conditions: HL-60, 48 h, read-out: Activity
[19] = system: CCRF-CEM; test: Growth inhibition of human CCRF-CEM cells assessed as cell growth at 1 uM incubated for 48 hrs by sulforhodamine B assay relative to control; conditions: read-out: Activity
[20] = system: A549; test: Growth inhibition of human A549/ATCC cells assessed as cell growth at 100 uM incubated for 48 hrs by sulforhodamine B assay relative to control; conditions: A549, 48 h, read-out: Activity
[21] = system: NCI-H522; test: Growth inhibition of human NCI-H522 cells assessed as cell growth at 100 uM incubated for 48 hrs by sulforhodamine B assay relative to control; conditions: NCI-H522, 48 h, read-out: Activity
[22] = system: IGROV-1; test: Growth inhibition of human IGROV1 cells assessed as cell growth at 0.01 uM incubated for 48 hrs by sulforhodamine B assay relative to control; conditions: IGROV-1, 48 h, read-out: Activity
[23] = system: NCI-H226; test: Growth inhibition of human NCI-H226 cells incubated for 48 hrs by sulforhodamine B assay; conditions: NCI-H226, 48 h
[24] = system: NCI-H226; test: Growth inhibition of human NCI-H226 cells assessed as cell growth at 100 uM incubated for 48 hrs by sulforhodamine B assay relative to control; conditions: NCI-H226, 48 h, read-out: Activity
[25] = system: Hs-578T; test: Growth inhibition of human Hs 578T cells assessed as cell growth at 0.01 uM incubated for 48 hrs by sulforhodamine B assay relative to control; conditions: read-out: Activity
[26] = system: UO-31; test: Growth inhibition of human UO31 cells assessed as cell growth at 1 uM incubated for 48 hrs by sulforhodamine B assay relative to control; conditions: UO-31, 48 h, read-out: Activity
[27] = system: SR; test: Growth inhibition of human SR cells incubated for 48 hrs by sulforhodamine B assay
[28] = system: SR; test: Growth inhibition of human SR cells assessed as cell growth at 1 uM incubated for 48 hrs by sulforhodamine B assay relative to control; conditions: read-out: Activity
[29] = system: COLO 205; test: Growth inhibition of human COLO205 cells assessed as cell growth at 100 uM incubated for 48 hrs by sulforhodamine B assay relative to control; conditions: COLO 205, 48 h, read-out: Activity
[30] = system: HOP-92; test: Growth inhibition of human HOP92 cells incubated for 48 hrs by sulforhodamine B assay; conditions: HOP-92, 48 h
[31] = read-out: LC50 (the source's name)
[32] = read-out: pLC50 (the source's name) (converted)

`c1ccc2c3c([nH]c2c1)C(c1ccc(C2NCCc4c2[nH]c2ccccc42)cc1)NCC3` (racemic) gave a growth at 0.01 µM [1] of 94%, a GI50 ([2]; read-out: GI50) of 1620 nM and a TGI ([2]; read-out: TGI) of 3.33 µM. For the same compound, the GI50 ([2]; read-out: pGI50 (converted)) was 1620 nM, the TGI ([2]; read-out: pTGI (converted)) was 3.31 µM and the CC50 [3, 31] was 5.01 µM. It also gave a GI50 ([3]; read-out: pGI50 (converted)) of 363 nM, a CC50 [3, 32] of 5.01 µM and a TGI ([3]; read-out: pTGI (converted)) of 1350 nM. It also gave a growth at 0.01 µM [4] of 95%, a growth at 1 µM [5] of 66% and a growth at 0.01 µM [6] of 88%. The growth at 100 µM [7] was -92%, the growth at 100 µM [8] was 90% and the GI50 ([9]; read-out: pGI50 (converted)) was 324 nM. The TGI ([9]; read-out: pTGI (converted)) was 1100 nM, the growth at 0.1 µM [10] was 94% and the growth at 0.01 µM [11] was 104%. It also gave a growth at 0.1 µM [12] of 92%, a growth at 0.1 µM [13] of 96% and a growth at 100 µM [14] of 89%. It also gave a growth at 1 µM [15] of 46%, a growth at 0.01 µM [16] of 100% and a growth at 1 µM [17] of 94%. For the same compound, the growth at 0.1 µM [18] was 116%, the growth at 1 µM [19] was 21% and the growth at 100 µM [20] was 87%. It also gave a growth at 100 µM [21] of 81%, a growth at 0.01 µM [22] of 99% and a GI50 ([23]; read-out: GI50) of 1960 nM. The CC50 [23, 31] was 9.1 µM, the TGI ([23]; read-out: TGI) was 4.23 µM and the GI50 ([23]; read-out: pGI50 (converted)) was 1950 nM. The CC50 [23, 32] was 9.12 µM, the TGI ([23]; read-out: pTGI (converted)) was 4.27 µM and the growth at 100 µM [24] was 60%. The growth at 0.01 µM [25] was 93%, the growth at 1 µM [26] was 52% and the GI50 ([27]; read-out: GI50) was 2470 nM. It also gave a CC50 [27, 31] of 4.51 µM, a TGI ([27]; read-out: TGI) of 5.56 µM and a GI50 ([27]; read-out: pGI50 (converted)) of 245 nM. It also gave a CC50 [27, 32] of 4.47 µM, a TGI ([27]; read-out: pTGI (converted)) of 0.55 µM and a growth at 1 µM [28] of 36%. It also gave a growth at 100 µM [29] of 84%, a CC50 [30, 31] of 9.59 µM and a GI50 ([30]; read-out: pGI50 (converted)) of 724 nM. For the same compound, the CC50 [30, 32] was 9.55 µM and the TGI ([30]; read-out: pTGI (converted)) was 2880 nM.
